# According to patent US11220629B2, “Two-photon fluorescent compounds for specific lipid droplet imaging in live cells and deep tissues at ultralow concentration” (THE HONG KONG UNIVERSITY OF SCIENCE AND TECHNOLOGY, priority 2018, dated 2022):
# Read-outs that look alike come from different tables or passages of the source.
# What was measured:
# LDs in HeLa cells [1] = experiment: One-photon LDs imaging at 50 nM; assay type: cell-based; settings: 405 nm laser intensity 12%
# Method: One-photon imaging experiments in HeLa cells stained with 50 nM of NAP-Ph, NAP-Br, NAP-CF3, and NAP-Py were performed, and Nile Red was used as comparison. […] As far as we know, this is the lowest concentration used for LDs imaging.
# HeLa cells = experiment: Photostability under continuous confocal laser irradiation; assay type: cell-based; settings: continuous irradiation for 10 min; NAP AIEgens 405 nm, Nile Red 543 nm, power 12%
# Method: FIG. 20 is a graph depicting photostability of NAP AIEgens and Nile Red in HeLa cells under continuous irradiation (irradiation conditions: for NAP AIEgens, 405 nm laser, laser power of 12%; for Nile Red, 543 nm laser, laser power of 12%).
# Considering the above-mentioned excellent bioimaging characteristics of these NAP AIEgens, further experiments were performed to evaluate their photostability and cytotoxicity. The photostability of NAP AIEgens was evaluated by continuous irradiation with confocal lasers, and data was collected every second. […] Furthermore, standard MTT (3-(4,5-dimethylthiazol-2-yl)-2,5-diphenyl-2H-tetrazolium) assays were performed to evaluate the cytotoxicity of NAP AIEgens in live cells.
# LDs in HeLa cells [2] = experiment: Co-staining imaging with LDs dye Nile Red (CLSM); assay type: cell-based; settings: 100 nM
# Method: (§1) To confirm the intracellular location of NAP AIEgens in live cells, co-staining imaging experiments were performed. […] It is believed that positive-charged dyes like NAP-Py^+ can stain mitochondria due to the high negative membrane potential of mitochondria. To determine why other NAP AIEgens without positive charge locate in LDs, additional investigation was conducted.
# [3] = Absorption and fluorescence (photophysical properties) in solvent and solid state; assay type: physicochemical; settings: for Φ (fluorescence quantum yield): integrating sphere; for Solvatochromism: toluene, diethyl ether, THF, acetone, DMSO
# Method: ^1H and ^13C NMR spectra were measured on Bruker ARX 400 NMR spectrometers using CDCl3 as the deuterated solvent. High-resolution mass spectra (HRMS) were recorded on a Finnegan MAT TSQ 7000 Mass Spectrometer System operating in a MALDI-TOF mode. UV absorption spectra were taken on a Milton Ray Spectronic 3000 array spectrophotometer. Steady-state fluorescence spectra were recorded on a Perkin Elmer LS 55 spectrometer. Fluorescence images were collected on Olympus BX 41 fluorescence microscope. Laser confocal scanning microscope images were collected on Zeiss laser scanning confocal microscope (LSM7 DUO) and analyzed using ZEN 2009 software (Carl Zeiss). Two-photon fluorescence imaging was carried out on Olympus FV 300 laser confocal microscope. In two-photon experiments, the excitation wavelengths were 860 nm from a Ti:sapphire femtosecond laser source (coherent chamelon ultra) and the incident power on samples was modified by means of an attenuator and examined with a power monitor (Coherent). A multiphoton emission filter (FF01-750; Semrock) was used to block the IR laser.
# The absorption and fluorescence (FL) data of the NAP AIEgens were investigated, and corresponding spectra are shown in FIGS. 5A-5H, 6A-6E, and FIG. 7.
# This phenomenon is probably due to the changes in morphology and size of the aggregates formed in the water-THF mixture with high water fractions. […] It should be noted that the FL of NAP AIEgens in high water fraction (fw>90%) increased only several-fold compared with that in THF or CH3CN (FIG. 5G), probably because of formation of loosely packed aggregates. […] The FL spectra of NAP AIEgens were further measured in different polar solvents (FIGS. 6A-6E). […] As for NAP-CF3, the reason for blue-shifted FL in the solid state was likely its twisted structure (FIG. 2E), resulting in only […] π-π interaction rather than J-aggregation (FIG. 2B). […] The FL quantum yields (QYs, Table 1) of NAP AIEgens were measured by using an integrating sphere. […] It should be pointed out that the solid FL QY of NAP-Py^+ was low, likely due to a narrow energy gap and enhanced nonradiative transitions in NIR fluorescent dyes (FIG. 7). Furthermore, longer FL lifetimes of NAP AIEgens in the solid state than those in solvents also verified that restriction of intramolecular motion (RIM) can prohibit energy dissipation via non-radiative channels and enhance the FL of NAP AIEgens (Table 1).
# [4] = test system: LDs in live mice liver tissue; experiment: Ex vivo two-photon imaging of live mice liver tissue; settings: 1 μM, 1 h incubation, λex 860 nm
# Method: TP fluorescence imaging outperforms imaging in one-photon mode as a result of high penetration in tissues and low background fluorescence because of near-infrared light excitation and low excitation power. […] After incubation with NAP-CF3 (1 μM) for 1 h, bright spherical spots with TP fluorescence of NAP-CF3 were observed (FIG. 18). For the live mice liver tissue without NAP-CF3, however, only low background fluorescence was obtained. […] To investigate whether NAP-CF3 could show LDs-specific staining in deep live mice liver tissue, TP fluorescence images along the Z-axis were captured. As shown in FIGS. 19A-19F, the fluorescent signal of the spherical spot could be clearly detected at different Z-axis depths even up to 70 μm. […] These excellent TP tissue imaging properties render NAP-CF3 a tremendous tool to visualize LDs-associated biomedical application in live tissues.
# [5] = Two-photon absorption (TPA) cross section of aggregate suspensions, fluorescein as standard; assay type: physicochemical; settings: aggregate suspension in H2O containing 1% CH3CN
# Method: With fluorescein as the standard, the TPA cross sections (δ) of NAP AIEgens at different wavelengths were also measured (FIG. 8F). […] To further acquire the TPEF, NAP AIEgens in solid states were directly excited at 800 nm (intensity of about 0.35 mW).
# [6] = test system: mitochondria in HeLa cells; experiment: Co-staining imaging with mitochondria dye MitoTracker Deep Red FM; assay type: cell-based; settings: NAP-Py^+ 1 μM, MTDR 100 nM
# Method: as §1
# [7] = THF or CH3CN (CH3CN for NAP-Py^+)
# [8] = THF or CH3CN (CH3CN for NAP-Py^+), listed as NAP-Py^+
Fluorescence intensity change under irradiation (HeLa cells),αAIE = Φsolid/Φsolvent [3],λem max ([3]; Solid) [nm],τ (fluorescence lifetime) ([3]; Solid) [ns],Φ (fluorescence quantum yield) ([3]; Solid),"Stokes shift [3, 7] [nm]","λabs max [3, 7] [nm]","λem max [3, 7] [nm]","τ (fluorescence lifetime) [3, 7] [ns]","Φ (fluorescence quantum yield) [3, 7]",Solvatochromism [3],Structure (SMILES),LDs staining (LDs in HeLa cells [1]),Pearson's coefficient with Nile Red (LDs in HeLa cells [2]),other results
dropped to some extent,9.00,597,4.43,0.126,116,409,525,<0.60,0.014,positive solvatochromism,COc1c(/C=C(\C#N)c2ccc(Br)cc2)ccc2cc(N(C)C)ccc12 [NAP-Br],clear fluorescence,0.83,–
dropped to some extent,14.47,619,1.39,0.217,128,413,541,<0.67,0.015,positive solvatochromism,COc1c(/C=C(\C#N)c2ccc(-c3ccncc3)cc2)ccc2cc(N(C)C)ccc12 [NAP-Py],clear fluorescence,0.88,"TPA cross section (δ) value [5]: very large; Φ (fluorescence quantum yield) ([3]; Solid, listed as NAP-Py^+): 0.048; λem max ([3]; Solid, listed as NAP-Py^+): 676 nm; τ (fluorescence lifetime) ([3]; Solid, listed as NAP-Py^+): 1.32 ns; Φ (fluorescence quantum yield) [3, 8]: 0.008; Stokes shift [3, 8]: 85 nm; λabs max [3, 8]: 455 nm; λem max [3, 8]: 540 nm; τ (fluorescence lifetime) [3, 8]: <0.58 ns; αAIE = Φsolid/Φsolvent ([3]; listed as NAP-Py^+): 6.00; Solvatochromism ([3]; listed as NAP-Py^+): negative solvatochromism; Pearson's coefficient with MitoTracker Deep Red FM [6]: 0.89"

# Continued, molecule first:
Structure (SMILES),Fluorescence intensity change under irradiation (HeLa cells),αAIE = Φsolid/Φsolvent [3],λem max ([3]; Solid) [nm],τ (fluorescence lifetime) ([3]; Solid) [ns],Φ (fluorescence quantum yield) ([3]; Solid),"Stokes shift [3, 7] [nm]","λabs max [3, 7] [nm]","λem max [3, 7] [nm]","τ (fluorescence lifetime) [3, 7] [ns]","Φ (fluorescence quantum yield) [3, 7]",Solvatochromism [3],LDs staining (LDs in HeLa cells [1]),Pearson's coefficient with Nile Red (LDs in HeLa cells [2]),other results
COc1c(/C=C(\C#N)c2cc(C(F)(F)F)cc(C(F)(F)F)c2)ccc2cc(N(C)C)ccc12 [NAP-CF3],–,18.25,555,6.29,0.292,135,425,560,<0.67,0.016,positive solvatochromism,clear fluorescence,0.85,LDs staining in live mice liver tissue [4]: excellent LDs staining property; Z-axis depth at which fluorescent signal is detected [4]: up to 70 μm
COc1c(/C=C(\C#N)c2ccc(-c3ccccc3)cc2)ccc2cc(N(C)C)ccc12 [NAP-Ph],dropped to some extent,14.89,566,1.42,0.268,114,409,523,<0.34,0.018,positive solvatochromism,clear fluorescence,0.90,"λem max ([3]; THF/water mixture, water fraction 90%, aggregates): 557 nm"
"CCN(CC)c1ccc2nc3c4ccccc4c(=O)cc-3oc2c1 [Nile Red, reference compound]",drastically decreased,–,–,–,–,–,–,–,–,–,–,non-specific staining in cytoplasm,–,–
